We go through one compound from patent publication US20220370537A1, “PHARMACEUTICAL COMPOSITION AND FUNCTIONAL HEALTH FOOD FOR TREATING BENIGN PROSTATIC HYPERPLASIA INCLUDING LAURUS NOBILIS AS ACTIVE INGREDIENT, AND METHOD OF TREATING BENIGN PROSTATIC HYPERPLASIA USING THE SAME” (KOSABIO INC., priority 2020, published 2022).

Type in all cases: in vivo, Wistar rats
In series [1] the test system is benign prostatic hyperplasia (testosterone-induced prostate hypertrophy). The experiment in a line: Therapeutic efficacy on benign prostatic hyperplasia: change in prostate weight and volume. The conditions noted are these: FINA 0.8 mg/kg orally, BPH-induced rats, therapeutic test. The protocol:
(§1) Male Wistar rats at 8 weeks of age (Samtako, Korea) were acclimated. When the rats weighed about 380 g on average (19 weeks old), they were divided into groups of 7.
(§2) After removing the testis therefrom, the rats in one of the groups were allowed to revive for about 24 hours. Propionate testosterone was subcutaneously injected at a dose of 5 mg/kg into the castrated group and the normal group to induce prostate hypertrophy for 8 weeks (BPH-induced groups). After induction of prostate hypertrophy for 8 weeks, the rats were treated as follows. Along with testosterone injection, the bay leaf extracts were orally administered at predetermined doses (mg/kg) once a day (seven times a week) for 8 weeks. Separately, Finasteride, which is a commercially available therapeutic agent for benign prostatic hyperplasia, was orally administered to a positive control.
After completion of the experiment, the rats of all the experimental groups were euthanized. The prostate tissues and main organs were excised therefrom and measured for weight and volume using an electronic scale for animal weights and a caliper (mm^3) (Table 1).

Series [2] can be described thus: Therapeutic test: hepatotoxicity and renal function, serum biochemical index. The following applies: FINA 0.8 mg/kg orally. On the procedure:
as §1, §2
For use in biochemical index analysis, blood samples were taken from the rats of all the groups through abdominal veins. The blood sample was coagulated for about 30 min and centrifuged at 10,000 rpm for 5 min to separate sera. The sera thus obtained were measured for liver function index (AST and ALT), lipoprotein levels (total cholesterol (T-CHO), HDL cholesterol (HDL-C), LDL cholesterol (LDL-C)), and kidney function index (creatine), using a biochemical analyzer (AU480, Beckman Coulter, USA) (Table 2).

For series [3], the system named is benign prostatic hyperplasia (testosterone-induced prostate hypertrophy). The series is described as follows: Prophylactic effect on benign prostatic hyperplasia: change in prostate weight and volume. The conditions noted are these: FINA 0.8 mg/kg orally, BPH-induced rats, prophylactic test. On the procedure: Male Wistar rats at 8 weeks of age (Samtako, Korea) were acclimated. When the rats weighed about 320 g on average (12 weeks old), they were divided into groups of 5.
as §2, with “7” for “5”
After completion of the experiment, the rats of all the experimental groups were euthanized. The prostate tissues and main organs were excised therefrom and measured for weight and volume using an electronic scale for animal weights and a caliper (mm^3) (Table 3).

Series [4] is described as follows: Prophylactic test: hepatotoxicity and renal function, serum biochemical index. The conditions noted are these: FINA 0.8 mg/kg orally. On the procedure:
Male Wistar rats at 8 weeks of age (Samtako, Korea) were acclimated. When the rats weighed about 320 g on average (12 weeks old), they were divided into groups of 5. After removing the testis therefrom, the rats in one of the groups were allowed to revive for about 24 hours. Propionate testosterone was subcutaneously injected at a dose of 7 mg/kg into the castrated group and the normal group to induce prostate hypertrophy for 8 weeks (BPH-induced groups). After induction of prostate hypertrophy for 8 weeks, the rats were treated as follows. Along with testosterone injection, the bay leaf extracts were orally administered at predetermined doses (mg/kg) once a day (seven times a week) for 8 weeks. Separately, Finasteride, which is a commercially available therapeutic agent for benign prostatic hyperplasia, was orally administered to a positive control. For use in biochemical index analysis, blood samples were taken from the rats of all the groups through abdominal veins. The blood sample was coagulated for about 30 min and centrifuged at 10,000 rpm for 5 min to separate sera. The sera thus obtained were measured for liver function index (AST and ALT), lipoprotein levels (total cholesterol (T-CHO), HDL cholesterol (HDL-C), LDL cholesterol (LDL-C)), and kidney function index (creatine), using a biochemical analyzer (AU480, Beckman Coulter, USA) (Table 4).

Consider `CC(C)(C)NC(=O)[C@H]1CC[C@H]2[C@@H]3CC[C@H]4NC(=O)C=C[C@]4(C)[C@H]3CC[C@]12C` [Finasteride], for which, in series [1], the Kidney weight worked out at 0.65 g, the Liver weight was determined as 10.36 g, the Prostate volume is 3459.59 mm^3 and the “Prostate weight (b)” value is 1.16 g. In series [1], the “Ratio (b/a*100)” value turned out to be 0.28% and the “Weight (a)” value is reported as 426.6 g. In series [2], this compound yielded an ALT of 50.3 U/L, an AST of 83.1 U/L, a CRE of 0.3 mg/dL and an HDL of 43.6 mg/dL. In series [2], this compound came in with an LDL of 14.1 mg/dL and a T-CHO of 70.7 mg/dL. Moreover, in series [3], the Kidney weight worked out at 0.58 g, the Liver weight is 8.09 g, the Prostate volume was 4626.31 mm^3 and the “Prostate weight (b)” value is on record as 1.43 g. For the same compound, in series [3], the “Ratio (b/a*100)” value is 0.43% and the “Weight (a)” value is 328.3 g. Further, in series [4], the ALT came to 51.6 U/L, the AST worked out at 140.4 U/L, the CRE was determined as 0.2 mg/dL and the HDL is given as 43.3 mg/dL. In series [4], this compound had an LDL of 17.0 mg/dL and a T-CHO of 60.6 mg/dL.
